Experimental data: ChEMBL document CHEMBL1201862, “PubChem BioAssay data set” (2004)
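Results reflect a 48-hour exposure of cells in 96-well plates to compound at five concentrations. Here, GI50 denotes the concentration required for 50% inhibition of growth.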 Activity calls are given as the source filed them. Cut-off read from the data, not from the text of the source: active = GI50 up to about 1.1 µM and inactive = higher. Peptide text beside a SMILES is read from it. * marks the point of attachment. Boc = CC(C)(C)OC(=O)*

Columns and labels:
Experiment in all cases: inhibition of tumour cell growth, NCI panel, 48 h
UO-31 = system: UO-31
PC-3 = system: PC-3
RPMI-8226 = system: RPMI-8226
HCT-116 = system: HCT-116
HCC 2998 = system: HCC 2998
MDA-MB-231 = system: MDA-MB-231
SR = system: SR
BT-549 = system: BT-549
LOX IMVI = system: LOX IMVI
SK-OV-3 = system: SK-OV-3
UACC-62 = system: UACC-62
SF-268 = system: SF-268
A498 = system: A498
OVCAR-8 = system: OVCAR-8
U-251 = system: U-251
ACHN = system: ACHN
SF-295 = system: SF-295
HOP-62 = system: HOP-62
NCI-H226 = system: NCI-H226

| SMILES | GI50 (UO-31) | GI50 (PC-3) | GI50 (RPMI-8226) | GI50 (HCT-116) | GI50 (HCC 2998) | GI50 (MDA-MB-231) | GI50 (SR) | GI50 (BT-549) | GI50 (LOX IMVI) | GI50 (SK-OV-3) | GI50 (UACC-62) | GI50 (SF-268) | GI50 (A498) | GI50 (OVCAR-8) | GI50 (U-251) | GI50 (ACHN) | GI50 (SF-295) | GI50 (HOP-62) | GI50 (NCI-H226) |
| --- | --- | --- | --- | --- | --- | --- | --- | --- | --- | --- | --- | --- | --- | --- | --- | --- | --- | --- | --- |
| O=C(O)[C@@H]1CCC(=O)N1C(c1ccc2c(c1)OCO2)c1ccc2c(c1)OCO2 | > 100 µM (inactive) | > 100 µM (inactive) | > 100 µM (inactive) | > 100 µM (inactive) | > 100 µM (inactive) | > 100 µM (inactive) | > 100 µM (inactive) | > 100 µM (inactive) | > 100 µM (inactive) | > 10 µM (inactive) | > 100 µM (inactive) | > 100 µM (inactive) | > 100 µM (inactive) | > 100 µM (inactive) | > 100 µM (inactive) | > 100 µM (inactive) | > 100 µM (inactive) | > 100 µM (inactive) | > 100 µM (inactive) |
| C=C[C@@]1(C)CC2(C=C(CO)C(O)O2)Oc2c1c(=O)oc1cccc(C)c21 (stereo partly specified) | 5.31 µM (inactive) | 15.6 µM (inactive) | 0.822 µM (active) | 1.74 µM (inactive) | 20.9 µM (inactive) | 10.5 µM (inactive) | 2.4 µM (inactive) | 3.35 µM (inactive) | 3.61 µM (inactive) | 24.4 µM (inactive) | 10.2 µM (inactive) | 3.25 µM (inactive) | 24.2 µM (inactive) | 5.28 µM (inactive) | 10.9 µM (inactive) | 7.78 µM (inactive) | 27.7 µM (inactive) | 17.5 µM (inactive) | 17.9 µM (inactive) |
| Cc1cc2nc(C#N)c(N3CCN(c4ccc([N+](=O)[O-])cc4)CC3)nc2cc1C | > 93.8 µM (inactive) | > 100 µM (inactive) | > 57.3 µM (inactive) | > 68.4 µM (inactive) | > 100 µM (inactive) | > 100 µM (inactive) | > 100 µM (inactive) | > 100 µM (inactive) | > 100 µM (inactive) | > 69.5 µM (inactive) | > 79.1 µM (inactive) | > 57.7 µM (inactive) | > 75.2 µM (inactive) | > 56.2 µM (inactive) | > 74.6 µM (inactive) | > 71.3 µM (inactive) | > 50.5 µM (inactive) | 40.6 µM (inactive) | > 100 µM (inactive) |
| O=C1N=C(c2ccccc2)O/C1=C\c1ccccc1 | > 100 µM (inactive) | > 100 µM (inactive) | > 100 µM (inactive) | > 100 µM (inactive) | > 100 µM (inactive) | > 100 µM (inactive) | > 100 µM (inactive) | > 100 µM (inactive) | > 100 µM (inactive) | > 100 µM (inactive) | > 100 µM (inactive) | > 100 µM (inactive) | > 100 µM (inactive) | > 100 µM (inactive) | > 100 µM (inactive) | > 100 µM (inactive) | > 100 µM (inactive) | > 100 µM (inactive) | > 100 µM (inactive) |
| c1ccc2c(c1)nc1n2CSCC1 | > 100 µM (inactive) | > 100 µM (inactive) | > 100 µM (inactive) | > 100 µM (inactive) | > 100 µM (inactive) | > 100 µM (inactive) | > 100 µM (inactive) | > 100 µM (inactive) | > 100 µM (inactive) | > 100 µM (inactive) | > 100 µM (inactive) | > 100 µM (inactive) | > 100 µM (inactive) | > 100 µM (inactive) | > 100 µM (inactive) | > 100 µM (inactive) | > 100 µM (inactive) | > 100 µM (inactive) | > 100 µM (inactive) |
| CCCc1nnc2sc(COc3ccc(OCc4nn5c(CCC)nnc5s4)c(Cl)c3)nn12 | 14.6 µM (inactive) | 44.2 µM (inactive) | 19.5 µM (inactive) | 27 µM (inactive) | 23.8 µM (inactive) | 36.1 µM (inactive) | 17.8 µM (inactive) | 23.9 µM (inactive) | 33.7 µM (inactive) | 36.6 µM (inactive) | 13.7 µM (inactive) | 23 µM (inactive) | 23.6 µM (inactive) | 31 µM (inactive) | 38.2 µM (inactive) | 20.9 µM (inactive) | 20.8 µM (inactive) | 47.8 µM (inactive) | > 100 µM (inactive) |
| Cc1nn2c(=O)c([N+](=O)[O-])c(/C=C/c3ccc(F)cc3)nc2s1 | 8.75 µM (inactive) | 9.42 µM (inactive) | 3.51 µM (inactive) | 6.41 µM (inactive) | 11.4 µM (inactive) | 13.9 µM (inactive) | 3.8 µM (inactive) | 5.12 µM (inactive) | 2.79 µM (inactive) | 12.6 µM (inactive) | 11.3 µM (inactive) | 8.87 µM (inactive) | 16.3 µM (inactive) | 6.07 µM (inactive) | 4.84 µM (inactive) | 11.5 µM (inactive) | 11.8 µM (inactive) | 15 µM (inactive) | 11.4 µM (inactive) |
| Cc1ccc(C)n1-n1c(Cc2ccccc2)n[nH]c1=O | > 100 µM (inactive) | > 100 µM (inactive) | 91.2 µM (inactive) | > 100 µM (inactive) | > 100 µM (inactive) | > 100 µM (inactive) | > 100 µM (inactive) | > 100 µM (inactive) | > 100 µM (inactive) | > 100 µM (inactive) | > 100 µM (inactive) | > 100 µM (inactive) | > 100 µM (inactive) | > 100 µM (inactive) | > 100 µM (inactive) | > 100 µM (inactive) | > 100 µM (inactive) | > 100 µM (inactive) | > 100 µM (inactive) |
| O=C1C=C/C(=N/c2cccc3c(/N=C4/C=CC(=O)O4)cccc23)O1 | > 100 µM (inactive) | 48 µM (inactive) | 23.1 µM (inactive) | 24.8 µM (inactive) | > 100 µM (inactive) | 69.5 µM (inactive) | 19.8 µM (inactive) | 86.3 µM (inactive) | 27.8 µM (inactive) | > 100 µM (inactive) | 34.4 µM (inactive) | 52.6 µM (inactive) | > 100 µM (inactive) | 20 µM (inactive) | > 100 µM (inactive) | 29 µM (inactive) | > 100 µM (inactive) | > 100 µM (inactive) | > 100 µM (inactive) |
| COCN1CCN=c2c1c1c3c(c4ccccc4n23)CCC1 | > 100 µM (inactive) | > 100 µM (inactive) | > 100 µM (inactive) | > 100 µM (inactive) | > 100 µM (inactive) | > 100 µM (inactive) | > 100 µM (inactive) | > 100 µM (inactive) | > 100 µM (inactive) | > 100 µM (inactive) | > 100 µM (inactive) | > 100 µM (inactive) | > 100 µM (inactive) | > 100 µM (inactive) | > 100 µM (inactive) | > 100 µM (inactive) | > 100 µM (inactive) | > 100 µM (inactive) | 10.7 µM (inactive) |
| CCCc1cn2c(/C=N/N=C(N)N)c(-c3c(OC)ccc(OC)c3[N+](=O)[O-])nc2s1 | 20.4 µM (inactive) | 9.59 µM (inactive) | 2.54 µM (inactive) | 6.18 µM (inactive) | 2.57 µM (inactive) | 4.07 µM (inactive) | 2.03 µM (inactive) | 10.9 µM (inactive) | 3.02 µM (inactive) | 18.1 µM (inactive) | 8.24 µM (inactive) | 11.4 µM (inactive) | 21.2 µM (inactive) | 14.6 µM (inactive) | 4.74 µM (inactive) | 18 µM (inactive) | 14.1 µM (inactive) | 12.6 µM (inactive) | 11.4 µM (inactive) |
| N#Cc1c(-c2ccc([N+](=O)[O-])cc2)cc(-c2ccc(Nc3ccnc4cc(Cl)ccc34)cc2)[nH]c1=O | > 100 µM (inactive) | > 100 µM (inactive) | > 100 µM (inactive) | > 100 µM (inactive) | > 100 µM (inactive) | > 100 µM (inactive) | > 100 µM (inactive) | > 100 µM (inactive) | > 100 µM (inactive) | > 100 µM (inactive) | > 100 µM (inactive) | > 100 µM (inactive) | > 100 µM (inactive) | > 100 µM (inactive) | > 100 µM (inactive) | > 100 µM (inactive) | > 100 µM (inactive) | 67.3 µM (inactive) | > 100 µM (inactive) |
| COc1ccc(/[N+]([O-])=C/c2ccc(OC(=S)S)c(OC)c2)cc1 | 44.6 µM (inactive) | 42.4 µM (inactive) | 30.3 µM (inactive) | 28.5 µM (inactive) | > 100 µM (inactive) | > 100 µM (inactive) | 15.6 µM (inactive) | 26.2 µM (inactive) | 38.5 µM (inactive) | 47.1 µM (inactive) | 99.3 µM (inactive) | 42.5 µM (inactive) | > 100 µM (inactive) | 38.5 µM (inactive) | 36.2 µM (inactive) | 75 µM (inactive) | 28.6 µM (inactive) | 39.7 µM (inactive) | 65.6 µM (inactive) |
| COC(=O)C(Cc1ccccc1)NC(=O)C(CS)NC(=O)OC(C)(C)C (stereo not drawn) (Boc-Cys-Phe-OMe; configuration not given here) | 74.1 µM (inactive) | > 100 µM (inactive) | > 100 µM (inactive) | 41.9 µM (inactive) | > 100 µM (inactive) | 26.9 µM (inactive) | 27.2 µM (inactive) | > 100 µM (inactive) | 69.2 µM (inactive) | > 100 µM (inactive) | > 100 µM (inactive) | > 100 µM (inactive) | > 100 µM (inactive) | > 100 µM (inactive) | > 100 µM (inactive) | > 100 µM (inactive) | > 100 µM (inactive) | > 100 µM (inactive) | > 100 µM (inactive) |
